Assay: mn = molality of the nth substance listed, in mol/kg
Conditions: 298.15 K, 102 kPa, Liquid, Vibrating tube method

CCCCCCCCCCCC[N+](C)(C)CC[N+](C)(C)CCCCCCCCCCCC.[Br-].[Br-] [1,2-bis(dimethyldodecylammonium)ethane dibromide] + O
Conditions	mass density [kg/m3]
m1 = 0.0005	997.078
m1 = 0.00056	997.083
m1 = 0.00065	997.091
m1 = 0.0007	997.095
m1 = 0.00079	997.103
m1 = 0.00089	997.112
m1 = 0.00095	997.117
m1 = 0.00104	997.124
m1 = 0.00107	997.126
m1 = 0.00119	997.136
m1 = 0.0013	997.144
m1 = 0.00142	997.153
m1 = 0.00168	997.172

CCCCCCCCCCCCn1cc[n+](C)c1.[Br-] [1-dodecyl-3-methylimidazolium bromide] + O
Conditions	mass density [kg/m3]
m1 = 0.00525	997.226
m1 = 0.00574	997.243
m1 = 0.00615	997.258
m1 = 0.007	997.288
m1 = 0.00733	997.299
m1 = 0.00816	997.329
m1 = 0.00869	997.347
m1 = 0.0092	997.365
m1 = 0.01006	997.396
m1 = 0.01063	997.412
m1 = 0.01124	997.43
m1 = 0.01196	997.451
m1 = 0.01274	997.474
m1 = 0.01356	997.498
m1 = 0.01464	997.529
m1 = 0.01526	997.545
m1 = 0.01629	997.575
m1 = 0.01707	997.595

Source: the NIST ThermoML archive (doi:10.1016/j.jct.2014.12.006)
